According to patent publication US20200339544A1 (JOINT STOCK COMPANY "BIOCAD", priority 2017, published 2020):
Where two headings read alike, the source gives them in different places.

What was measured:
WT EGFR (Wild-Type EGFR) = target: T1, WT EGFR (Wild-Type EGFR) (Homo sapiens, UniProt P00533); experiment: Inhibition of WT EGFR kinase activity (ADP-Glo); assay type: biochemical
T1 construct: purchased SignalChem
Outline: (§1)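 Recombinant WT or double-mutant EGFR was incubated with a solution of 0.5 mg/mL peptide substrate and 50 μM ATP for 180 minutes at 37° C. Kinase activity was detected by ADP-Glo luminescence. IC50 values came from a four-parameter logistic fit.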

[1] = target: T2, DM EGFR (DoubleMutantEGFR, L828R/T790M) (Homo sapiens, UniProt P00533, L858R/T790M); experiment: Inhibition of DM EGFR kinase activity (ADP-Glo); assay type: biochemical; details: for IC50: inhibition of kinase activity, EGFR DM (L828R/T790M); for SI, IC50(WT)/IC50(DM): selectivity index, kinase EGFR WT vs EGFR DM
T2 construct: purchased SignalChem
Outline: as §1

[2] = tested on: A549 (lung adenocarcinoma, WT); experiment: Antiproliferative activity on A549 cells (Alamar Blue); assay type: cell-based; details: Homo sapiens, antiproliferative test
Outline: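 Cells seeded at 5*10^3/well in RPMI-1640 with 2% FBS, attached 16-18 h at 37° C, then exposed to compounds (≤1% DMSO) for 72 h. Alamar Blue added for 3-5 h; fluorescence read at 540/590 nm. IC50 from four-parameter logistic fit.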

[3] = tested on: HCC827 (lung adenocarcinoma, SM, exon19delE746-A750); experiment: Antiproliferative activity on HCC827 cells (Alamar Blue); assay type: cell-based; details: Homo sapiens, antiproliferative test
Description: Antiproliferative activity of EGFR inhibitors (Tables 15 and 16) was measured in cell-based bioassay on continuous epithelial cell cultures: A549 (lung adenocarcinoma, ATCC® CRM-CCL-185™—WT), HCC827 (lung adenocarcinoma, ATCC® CRL-2868™—SM (SingleMutantEGFR, exon19delE746-A750)) and H1975 (lung adenocarcinoma, ATCC® CRL-5908™—DM (DoubleMutantEGFR, L828R/T790M)) using cell viability reagent Alamar Blue (ThermoFisher, # DAL1100). Cells were cultured in 10% FBS-supplemented (Gibco, #16140071) RPMI-1640 (PanEco, S330p) for at least 1 passage after thawing, washed with PBS and passaged in 96-well culture plates (3599, Corning) with RPMI-1640 growth medium supplemented with 2% FBS in an amount of 5*10^3 cells/well for A549, 10*10^3 cells/well for HCC827 and 15*10^3 cells/well for H1975 in 100 μL, and incubated at 37° C. in an incubator (Thermo Forma, USA) under 5% of CO2 for 16-18 h for cell attachment.
The test compounds were dissolved in DMSO in the selected range of concentrations and transferred to RPMI-1640 medium (PanEco, S330p) supplemented with 2% FBS. After adding 50 μl of the prepared dilutions to the cells, the incubation mixture contained the final concentrations of the test substances and no more than 1% DMSO. The plates were Incubated at 37° C. for 72 h. After incubation, 15 μl of Alamar Blue vital dye (ThermoFisher, # DAL1100) was added to each well. The plates were shaken on an orbital shaker (Biosan, Latvia) and further incubated for 3-5 h in a CO2 incubator (Thermo Forma, USA). Number of living cells was estimated using a plate spectrophotometer Infinite M200Pro, (Tecan, Switzerland) measuring fluorescent signal at the excitation wavelength (λEx) of 540 nm and emission wavelength (λEm) of 590 nm.
IC50 was calculated using Magellan 7.2 software (Tecan, Switzerland) approximating experimental points by four-parameter logistic model with the optimization by Levenberg-Marquardt.

[4] = tested on: H1975 (lung adenocarcinoma, DM, L828R/T790M); experiment: Antiproliferative activity on H1975 cells (Alamar Blue); assay type: cell-based; details: for IC50: Homo sapiens, NCI-H1975, H1975 cells; for SI IC50(A549)/IC50(DM): selectivity index, A549 vs H1975 cells
Outline: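 H1975 cells (15*10^3/well) attached 16-18 h in RPMI-1640 with 2% FBS, then exposed to compounds (≤1% DMSO final) for 72 h at 37 °C. Viability by Alamar Blue fluorescence (Ex 540/Em 590 nm) after 3-5 h; IC50 from four-parameter logistic fit.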

[5] = General cytotoxicity on HepG2 cells; assay type: cell-based; details: human; general cytotoxicity, HepG2 cells, 72 hours, average of several tests
Outline: (§2)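 HepG2 cells seeded at 2*10^4 cells per well and compounds added in DMEM with 2% FBS for 72 h at 37 °C. Viability read with Alamar Blue and CC50 derived as for IC50. Therapeutic index taken as HepG2 CC50 over H1975 IC50.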

HepG2 cells = experiment: General cytotoxicity on HepG2 cells; assay type: cell-based; details: therapeutic index, CC50 HepG2 / IC50 H1975
Outline: as §2

[6] = Chemical stability in human blood plasma; assay type: in vitro ADME; details: pooled human blood plasma; 10 μm; 4 hours at 37° C.; substance amount remaining
Outline: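 Pooled plasma from ten healthy donors was spiked to 10 μM from a 10 mM DMSO stock and held 4 h at 37 °C. After acetonitrile protein precipitation, HPLC peak areas before and after incubation gave the percentage of compound remaining.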

[7] = Enzyme stability in human liver S9 fractions; assay type: in vitro ADME; details: 0.5 mg/mL pooled human liver S9 fractions; 10 μM compound; 37° C.; pH 7.4; read-out: Stability in liver S9 fractions, Clint
Description: Determination of enzyme stability.
Measuring of candidate enzyme stability enabled estimation of the stability of the compounds towards the action of liver enzymes.
Enzyme degradation rate was measured by incubating the reaction mixture in a dry block thermostat at 37° C., said reaction mixture comprising 0.5 mg/mL of pooled human liver S9 fractions (XenoTech, USA, cat # H0610), 10 μM compound, 2 mM β-nicotinamide adenine dinucleotide (Carbosynth, UK, cat # NN10871) and 4 mM magnesium chloride in 0.1 M sodium-phosphate buffer, pH=7.4. The reaction was quenched with acetonitrile (100 μL of acetonitrile/100 μL of the reaction mixture). After quenching, the samples were centrifuged at 10000 rpm for 10 minutes. Supernatant fluid was tested by chromatographic technique using Agilent1200 (Agilent, USA). We used gradient elution (1 mL/min flow rate). A graph of the logarithm of substance's peak area as a function of time was made. The dependent factor of the line corresponded to the elimination rate constant K based on which the drug's half-life T½ and intrinsic clearance CLint were calculated:
Based on the data obtained, candidate enzyme stability in human liver S9 fractions was determined (see Table 11).

[8] = average values obtained in several tests, Table 16, read-out: H1975 (DM) IC50
[9] = antiproliferative test, Table 15, read-out: IC50 H1975 (DM)

Structure (SMILES)	IC50 (WT EGFR (Wild-Type EGFR)) [µM]	IC50 [1] [µM]	SI, IC50(WT)/IC50(DM) [1]	IC50 [2] [µM]	IC50 [3] [µM]	IC50 [4, 8] [µM]	IC50 [4, 9] [µM]	SI IC50(A549)/IC50(DM) [4]	CC50 at 72 h [5] [µM]	TI, CC50/IC50 (HepG2 cells)	Stability in blood plasma, % [6] [%]	Intrinsic clearance in human liver S9 fractions at 10 µM [7] [µL/min/mg]
C=CC(=O)Nc1cc(Nc2cc(C(=O)c3ccc(N(CC)CC)cc3)ccn2)c(OC)cc1N(C)CCN(C)C	0.145	0.00553	26.20	4.42	0.0139	0.0342	0.0342	129	7.82	229	–	–
C=CC(=O)Nc1cc(Nc2nccc(C(=O)c3ccc(N4CC[C@H](O)C4)cc3)n2)c(OC)cc1N(C)CCN(C)C.O=CO [EGFR_3365_112, (S)-N-(2-((2-(dimethylamino)ethyl)(methyl)amino)-5-((4-(4-(3-hydroxypyrrolidin-1-yl)benzoyl)pyrimidin-2-yl)amino)-4-methoxyphenyl)acrylamide formate]	0.0235	0.00205	11.48	37.3	–	0.0153	0.0153	2443	> 50	>3267	96.9	6.8
C=CC(=O)Nc1cc(Nc2nccc(C(=O)c3ccc(N4CC[C@@H](O)C4)cc3)n2)c(OC)cc1N(C)CCN(C)C [EGFR_3365_113, (R)-N-(2-((2-(dimethylamino)ethyl)(methyl)amino)-5-((4-(4-(3-hydroxypyrrolidin-1-yl)benzoyl)pyrimidin-2-yl)amino)-4-methoxyphenyl)acrylamide]	0.0434	0.00254	17.09	13.6	–	0.00442	0.00442	3073	46.3	10481	94.0	10.5
C=CC(=O)Nc1cc(Nc2nccc(C(=O)c3ccc(N4CC[C@H](OC)C4)cc3)n2)c(OC)cc1N(C)CCN(C)C [EGFR_3365_114, (S)-N-(2-((2-(dimethylamino)ethyl)(methyl)amino)-4-methoxy-5-((4-(4-(3-methoxypyrrolidin-1-yl)benzoyl)pyrimidin-2-yl)amino)phenyl)acrylamide]	0.0514	0.00202	25.37	14.2	–	0.0121	0.0121	1175	23.8	1970	93.9	16
C=CC(=O)Nc1cc(Nc2nccc(C(=O)c3ccc(N4CC[C@@H](OC)C4)cc3)n2)c(OC)cc1N(C)CCN(C)C [EGFR_3365_115, (R)-N-(2-((2-(dimethylamino)ethyl)(methyl)amino)-4-methoxy-5-((4-(4-(3-methoxypyrrolidin-1-yl)benzoyl)pyrimidin-2-yl)amino)phenyl)acrylamide]	0.126	0.00199	63.44	12.8	–	0.0191	0.0191	670	22	1154	94.6	19.8
C=CC(=O)Nc1cc(Nc2nccc(C(=O)c3ccc(N4CCCC4)cc3OC)n2)c(OC)cc1N(C)CCN(C)C [EGFR_3365_123, N-(2-((2-(dimethylamino)ethyl)(methyl)amino)-4-methoxy-5-((4-(2-methoxy-4-(pyrrolidin-1-yl)benzoyl)pyrimidin-2-yl)amino)phenyl)acrylamide]	0.052	0.00265	19.58	7.19	–	0.00118	0.00118	6105	40	33959	87.3	9.2
C=CC(=O)Nc1cc(Nc2nccc(C(=O)c3c(OC)cc(OC)cc3OC)n2)c(OC)cc1N(C)CCN(C)C [EGFR_3365_124, N-(2-((2-(dimethylamino)ethyl)(methyl)amino)-4-methoxy-5-((4-(2,4,6-trimethoxybenzoyl)pyrimidin-2-yl)amino)phenyl)acrylamide]	0.0763	0.00357	21.41	19.7	–	0.0663	0.0663	298	> 50	>754	90.7	22.2
